{
  "source": "patent US20250034208A1",
  "about": "“PEPTIDES AND PHARMACEUTICAL AND COSMETIC COMPOSITIONS CONTAINING THEM” (LABORATOIRES D'ANJOU, priority 2021, published 2025)",
  "key": {"[1]": {"tested_on": "freshly isolated human primary keratinocytes", "experiment": "Wound closure test of a sheet of primary keratinocytes", "format": "cell-based", "conditions": "for wound closure activity, ranking of peptides: increasing order LRIRFTYK, CSGLRIRFTYKSGC, CLRIRFTYKC, Example 11, FIG. 10", "excerpt": "(§1) • the HT1080 line: Cells originating from epithelial lines, tools commonly used for cell adhesion studies, were first used. The cells of the HT1080 line (fibrosarcoma, Human), American Type Culture Collection CCL-121. • primary human keratinocytes: For the cell viability and migration test, freshly isolated normal human keratinocytes were used. Human keratinocytes were obtained from preputial biopsy (surgical waste, tissue bank and cells, Edouard Herriot Hospital). The culture medium used during the experiments was the medium defined for KGM-Gold keratinocytes sold by Lonza Bioscience containing 0.15 mM of CaCl2, pH 7.2 to 7.4. The keratinocytes were obtained according to the Boyce and Ham technique (Cultivation, frozen storage, and clonal growth of normal human epidermal keratinocytes in serum free-media, Tiss Cuit. Meth. 1985, 9:83-93). The pieces of skin, after rinsing in PBS buffer containing antibiotics, were freed of the fat tissue and cut into 3 mm^2 pieces, then placed in a sterile solution of 0.25% trypsin in PBS for 16 h at 4° C. The dermis/epidermis separation was carried out in a Petri dish containing culture medium in order to stop the action of trypsin. The epidermis fragments were sucked in and discharged several times to detach the free basal cells. After centrifuging, 3.10^4 live cells were seeded per cm2 on dishes for tissue cultivation (Corning, Polylabo, France). The keratinocytes were cultured at 37° C. in a CO2 incubator (5% CO2, 95% air and 98% moisture). The sub-culture took place when the cells reached the sub-confluence. The sheet of cells was then rinsed with PBS, then covered with a solution of Trypsin-EDTA (0.05-0.02%). After a short incubation at 37° C., the cells were detached, counted, and re-seeded.\n6-well plates (Costar) are covered with collagen I for 16 h then rinsed with PBS. Three inserts with two Ibidi-sterile wells (Ibidi, reference: 80209) are deposited in each of the wells. 2×10^4 keratinocytes are deposited in each insert well in KBM-Gold. After two hours of incubation in humid air at 37° C., composed of 5% CO2 and 95% atmospheric air, the culture medium is sucked out and the inserts removed. KBM-Gold with no supplement is added to each of the wells of the plate. The cells are thus: not treated (medium alone), treated with supplement-free KBM-Gold containing the peptides studied (25 μg/ml), or treated with supplement-free KBM-Gold containing EGF at 10 ng/ml (Peprotech). The cultures are stopped at 12 h and 24 h, the media are sucked out, and the cells are fixed with 2% PBS-Paraformaldehyde for 20 minutes. After the fixator has been sucked out, the cells are colored with a 0.1% solution of Crystal Violet in ultrapure water for 30 minutes. The Crystal Violet is removed and the wells are rinsed with water. Image acquisitions are carried out and the injuries are quantified using Adobe Photoshop CS3 software."}, "[2]": {"tested_on": "HT1080 cells", "experiment": "Cell adhesion test (colorimetric, crystal violet) on immobilized peptide", "format": "cell-based, Human", "conditions": "for adhesion response dependent on the amount of peptide immobilized in the wells: K substitution variants of LRIRATYG, Example 6, FIG. 5", "excerpt": "as §1, with “After centrifuging, 3.10^4 live cells were seeded per cm2 on dishes for tissue cultivation (Corning, Polylabo, France). The keratinocytes were cultured at 37° C. in a CO2 incubator (5% CO2, 95% air and 98% moisture). The sub-culture took place when the cells reached the sub-confluence. The sheet of cells was then rinsed with PBS, then covered with a solution of Trypsin-EDTA (0.05-0.02%).” left out, “re-seeded. […]” for “re-seeded.”\nAfter seeding the cells, the plates were placed in an incubator at 37° C. in a 5% CO2 atmosphere. […] The absorbance was read at 570 nm using a plate reader (Victor^2 V Spectrophotometer, Perkin Elmer). […] The negative control value is the average of the absorbance of the three control wells (BSA). This was subtracted from each of the absorbance values obtained for the experimental points. The averages of the absorbance values for each of the conditions were calculated and were presented in the form of a curve, with on the y-axis, the average values of the absorbance, and on the x-axis, the various quantities of substrate immobilized in the wells (in μg or mole). […]"}, "[3]": {"tested_on": "keratinocytes of the epidermis and other epithelial cells", "conditions": "prior patent EP1784423 of the Applicant; cited from earlier work"}, "[4]": {"conditions": "25 μg/ml peptide, 12 and 24 h, Example 5, FIG. 4"}},
  "note": "Bridges are numbered along the chain shown (N, C = ends). Where no end group is shown, it is not given here.",
  "data": [
    {"sequence": "CLRIRFTYKC (disulfide 1-10 (inferred); not fully specified)", "values": [
      {"measurement": "wound closure activity, ranking of peptides", "setting": "[1]", "value": "most significant activities"}
    ]},
    {"sequence": "CSGLRIRATYGSGC (Other sequences)", "values": [
      {"measurement": "adhesion induction activity relative to the LRIRATYG motif", "setting": "[2]; low concentration of immobilized peptide, Examples 2 and 3, FIG. 1 and 2", "value": "activity being doubled at a low concentration"},
      {"measurement": "wound closure activity compared to TALRIRATYGEY and LRIRATYG", "setting": "[1]; [4]", "value": "significantly greater activity at 12 and 24 h"},
      {"measurement": "wound closure activity compared with the other peptides", "setting": "[1]; 25 μg/ml peptide, 12 h and 24 h, Example 4, FIG. 3", "value": "significantly greater than that of the other peptides"},
      {"measurement": "wound closure compared with negative control", "setting": "[1]; 25 μg/ml peptide, 12 h and/or 24 h post-injury, negative control culture medium alone, Example 4, FIG. 3", "value": "very significantly greater than that of the negative control"},
      {"measurement": "wound closure activity compared with negative control", "setting": "[1]; 25 μg/ml peptide, time not given, Example 5, FIG. 4", "value": "significantly greater than that of the negative control"}
    ]},
    {"sequence": "CSGLRIRFTYKSGC (disulfide 1-14 (inferred); not fully specified)", "values": [
      {"measurement": "wound closure activity, ranking of peptides", "setting": "[1]", "value": "most significant activities"}
    ]},
    {"sequence": "LRIRATYK (Other sequences)", "values": [
      {"measurement": "adhesion response dependent on the amount of peptide immobilized in the wells", "setting": "[2]", "value": "decreases"}
    ]},
    {"sequence": "LRIRKTYG (Other sequences)", "values": [
      {"measurement": "adhesion response dependent on the amount of peptide immobilized in the wells", "setting": "[2]", "value": "disappears"}
    ]},
    {"sequence": "TALRIRATYGEY (Other sequences) [reference compound]", "values": [
      {"measurement": "wound closure activity, LRIRATYG and TALRIRATYGEY compared between them", "setting": "[1]; [4]", "value": "equivalent activity between them"},
      {"measurement": "wound closure activity compared with negative control", "setting": "[1]; 25 μg/ml peptide, 24 h, negative control culture medium alone, Example 5, FIG. 4", "value": "significantly greater than that of the negative control"},
      {"measurement": "induction of cell adhesion", "setting": "[3]", "value": "specifically induces the adhesion"}
    ]}
  ]
}
